Reference: ChEMBL document CHEMBL3988442, “University of Dundee, Small-Polar-MMV Screening Library” (2021)

Biological target: ClpP1P2 (Mycobacterium tuberculosis (strain ATCC 25618 / H37Rv), UniProt P9WPC3+P9WPC5)
Assay: in vitro assay to detect presence of AMC directly proportional to the activity of ClpP1P2. GHDDI collaboration.
Assay type: functional

ClpP1P2, sequence (P9WPC5 whole entry): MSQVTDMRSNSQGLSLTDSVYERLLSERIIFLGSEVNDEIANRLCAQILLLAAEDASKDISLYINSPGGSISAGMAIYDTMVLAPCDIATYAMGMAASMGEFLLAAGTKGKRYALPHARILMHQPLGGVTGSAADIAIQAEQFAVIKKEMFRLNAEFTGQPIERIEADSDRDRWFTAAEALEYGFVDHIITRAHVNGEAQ
ClpP1P2, sequence (P9WPC3 whole entry): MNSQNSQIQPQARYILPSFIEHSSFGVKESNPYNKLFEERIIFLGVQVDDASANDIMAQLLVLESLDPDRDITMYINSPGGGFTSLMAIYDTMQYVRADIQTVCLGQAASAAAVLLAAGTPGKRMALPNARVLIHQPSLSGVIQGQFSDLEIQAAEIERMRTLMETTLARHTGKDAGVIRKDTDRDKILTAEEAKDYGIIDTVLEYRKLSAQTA

| SMILES | IC50 [µM] |
| --- | --- |
| N#Cc1cc2cc(Cl)cnc2nc1O | > 100 |
| CC(=O)Nc1ccc2nc(CN(C)Cc3noc(C)n3)ccc2c1 | > 100 |
| O=C(c1c2c(N3CCCC3)ncnc2n2ccccc12)N1CCOCC1 | > 100 |
| Cn1ccc2c(-c3cc(N)nc(N4CCOCC4)n3)ccnc21 | > 100 |
| O=C(NCC1CCCOC1)c1ccc(-c2cccs2)[nH]c1=O (centres undefined) | > 100 |
| Cc1nc2ccccc2nc1NCc1cccc(OCC2CCCO2)c1 (centres undefined) | > 100 |
| O=C1NC2(CCN(CC(=O)N3CCOCC3)CC2)Nc2ccccc21 | > 100 |
| COCCNCc1cc2c(C)cc(C)cc2n2c(=O)n(C)nc12 | > 100 |
| CCC(C)(C)NC(=O)c1ccc(-c2ccco2)[nH]c1=O | > 100 |
| CC(C)c1nnc(NC(=O)CN2C(=O)c3ccccc3NC2C(C)C)s1 (centres undefined) | > 100 |
| O[C@@H]1C[C@H]2CN(Cc3ccccc3)[C@H](Cc3ccccc3)CN2C1 | > 100 |
| CC(Cn1cccn1)Nc1cnc2ccccc2n1 (centres undefined) | > 100 |
| NC(=O)CN1CCC(c2cc(C(F)(F)F)n3ccnc3n2)CC1 | > 100 |
| CC(=O)N1CCC(c2cncc(N3CCOCC3)n2)CC1 | > 100 |
| O=C(c1cc(-c2ccco2)nc2c(Cl)cccc12)N1CCS(=O)(=O)CC1 | > 100 |
| Cc1ccccc1-c1noc(CN2CCc3cncnc3C2)n1 | > 100 |
| CN(C)c1nc2c(c(NCc3nnc4n3CCCCC4)n1)CCNC2 | > 100 |
| CN(C)C(=O)c1nc(-c2ccc(S(C)(=O)=O)cc2)c2ccccn12 | > 100 |
| c1ccc2nc(N3CCOC(Cn4cncn4)C3)cnc2c1 (centres undefined) | > 100 |
| CNC(=O)c1cc2c(nc1NCC(C)C)CCN(S(=O)(=O)C1CC1)CC2 | > 100 |
| COc1ncccc1CNC(=O)c1cc(C)on1 | > 100 |
| Cc1cc(C)n(CCNCc2cc(-c3ccccc3)c[nH]c2=O)n1 | > 100 |
| O=C(O)C1CN(c2cncc(Cc3ccccc3)n2)C1 | > 100 |

| SMILES | IC50 [µM] |
| --- | --- |
| N#Cc1cc2c(=O)n(CC(O)Cc3ccccc3)ccc2[nH]c1=O (centres undefined) | > 100 |
| Cn1ccc(-c2cc(C(=O)N3CCCCC3)c3ccccn23)n1 | > 100 |
| Oc1ccc(C2Nc3ccccc3C3=NCCCN32)cc1 (centres undefined) | > 100 |
| Cn1ccnc1CN1CCN(CC(O)c2cc(F)ccc2F)CC1 (centres undefined) | > 100 |
| Cc1nc(C)n(CC2CCCN(CCC(=O)NC3CCCCC3)C2)n1 (centres undefined) | > 100 |
| O=C(CO)N1CCC(CCc2ccnc(Nc3cnccn3)c2)CC1 | > 100 |
| COCCOc1ccc(CNc2cnc3ccccc3n2)cn1 | > 100 |
| Cc1c(-c2cccs2)nn2c(O)c3c(nc12)CN(C(=O)C1CC1)C3 | > 100 |
| Cc1cnn(CC2CN(Cc3nc4ccccc4c(=O)[nH]3)CCO2)c1 (centres undefined) | > 100 |
| Cc1cc(NC(=O)CN2CCn3c(nnc3C(C)C)C2)no1 | > 100 |
| Nc1nccnc1C(=O)NCCCNc1ccc(C(F)(F)F)cn1 | > 100 |
| Cc1nc(CN(C)C2CCN(Cc3cccc4c3OCCO4)C2)no1 (centres undefined) | > 100 |
| Cc1cc(C)n(CCNc2ncnc3c2NC(=O)CN3)n1 | > 100 |
| O=C(NCc1nn(-c2ccccc2)c2c1CCC2)NCC1COCCO1 (centres undefined) | > 100 |
| NC(=O)C1CCN(c2nc3nccc(-c4cccnc4)c3c(=O)[nH]2)CC1 | > 100 |
| COc1ccc2c(c1)Cc1c-2nc(N)c(C#N)c1C1CCOC1 (centres undefined) | > 100 |
| COc1ccccc1-c1nc(C(=O)N(C)C)n2ccncc12 | > 100 |
| Cc1n[nH]c(C)c1-c1cc(-c2ccc[nH]2)nc(N)c1C#N | > 100 |
| Cc1ccc(C2(O)CCN(C(=O)CCn3ccc(=O)[nH]c3=O)CC2)nc1 | > 100 |
| Cc1ccc(S(=O)(=O)N2CCCC3(CCCN3S(C)(=O)=O)C2)cc1F (centres undefined) | > 100 |
| CC(O)c1cn(CC2CCN(C(=O)c3cscn3)CC2)nn1 (centres undefined) | 84.4 |
| CCC[C@H]1CN(c2cncc(C(=O)N(C)C)n2)C[C@@H]1N(C)C | > 100 |
| CS(=O)(=O)N1CCCCCC1C1CCN(c2ncccc2C#N)CC1 (centres undefined) | > 100 |

| SMILES | IC50 [µM] |
| --- | --- |
| O[C@@H]1C[C@H]2CN(Cc3ccccc3Cl)[C@H](Cc3ccccc3)CN2C1 | > 100 |
| Cc1nc(C(=O)N2CCC(c3cc(CCO)n(C)n3)C2)co1 (centres undefined) | > 100 |
| Cc1csc2ncc(-c3ccnc(N4CCN(C)CC4)n3)c(=O)n12 | > 100 |
| CCOC(=O)CN(CC(F)(F)F)C(=O)c1nc(C)n2ccccc12 | > 100 |
| CCC(=O)N1CCCN(c2cncc(-n3nc(C)cc3C)n2)CC1 | > 100 |
| COc1ccc(S(N)(=O)=O)cc1C(=O)N(C)Cc1cc(C)on1 | > 100 |
| c1cnc2nc(N3CCCC3c3nnc4n3CCCCC4)ccc2n1 (centres undefined) | > 100 |
| Cn1cc(CCC(=O)N2CCCN(c3ncccc3C#N)CC2)cn1 | > 100 |
| CCOCCCNCc1cc2c(C)cc(C)cc2n2c(=O)n(C)nc12 | > 100 |
| CCNC(=O)C1CCCN(c2ccc3ccc(F)cc3n2)C1 (centres undefined) | > 100 |
| OCCNc1nc(Nc2ccccc2)c2nccnc2n1 | > 100 |
| N[C@H]1CN(C(=O)c2ccccc2OCCc2ccccc2)C[C@@H]1C1CC1 | > 100 |
| CCCC(C)NC(=O)c1ccc(-c2ccco2)[nH]c1=O (centres undefined) | > 100 |
| Cn1c(Cn2ccnc2)nnc1C1CCN(C(=O)c2cccnc2)CC1 | > 100 |
| Cc1nc(CN2CCN(C(=O)c3sccc3C)CC2)cs1 | > 100 |
| CCCNC(=O)c1cc(-c2ccn(C(C)C)n2)n2ccccc12 | > 100 |
| c1ccc2nc(N3CCCC3c3nnc4n3CCCCC4)cnc2c1 (centres undefined) | > 100 |
| CCNCCOc1ccc(-c2cc(N)nc3[nH]ccc23)cc1 | > 100 |
| CN(Cc1cccc(C(N)=O)c1)CC1CCCN1c1cccnn1 (centres undefined) | > 100 |
| CC(C)c1ncc2c(n1)CN(CC(=O)Nc1ccc(Cl)cn1)CC2 | > 100 |
| CNc1cncc(C2CCN(C(=O)c3cnco3)CC2)n1 | > 100 |
| N#Cc1c(C2CCOC2)cc(-c2ccc(N3CCCCC3)cc2)nc1N (centres undefined) | > 100 |
| O=C1C(Nc2ccc3nccnc3n2)CCN1c1ccccc1 (centres undefined) | > 100 |

| SMILES | IC50 [µM] |
| --- | --- |
| CCOCC1CN(c2ccncn2)Cc2cnn(CC)c21 (centres undefined) | > 100 |
| Cc1n[nH]c(C)c1-c1cc(-c2cc[nH]c2)nc(N)c1C#N | > 100 |
| O=C(c1cc(F)ccc1F)C1CCN(C(=O)c2cnccn2)CC1 | > 100 |
| CSc1ccc(CNc2n[nH]c(C)n2)cc1 | > 100 |
| Cc1cnn(CC2CN(Cc3nc(C)c4ccccc4n3)CCO2)c1 (centres undefined) | > 100 |
| CC(C)n1nc2c(cc1=O)CN(Cc1nc3ccccc3o1)CC2 | > 100 |
| Cc1cc(C)n(-c2cncc(NCCNC(=O)C(C)C)n2)n1 | > 100 |
| N#Cc1cccnc1N1CCCN(C(=O)CCn2cccn2)CC1 | > 100 |
| Cn1cnc2ccc(NC(=O)CC3CCN(S(C)(=O)=O)CC3)cc21 | > 100 |
| O=C(NCc1ccccn1)[C@H]1COC[C@H]2CN(C3CCCC3)C[C@H]21 | > 100 |
| Cc1cnn(CC2CCCN2C(=O)c2nccnc2N)c1 (centres undefined) | > 100 |
| CCN1CCCC1CNCc1cc2cc(OC)ccc2[nH]c1=O (centres undefined) | > 100 |
| Cc1nc(-c2nc(C(=O)N(C)C)c3ccccn23)cn1C(C)C | > 100 |
| CNc1cncc(C2CCCN2C(=O)CCn2ccnc2C(C)C)n1 (centres undefined) | > 100 |
| CC1CCC(NC(=O)CNC2(c3ccc(Br)cc3)CCOCC2)CC1 (centres undefined) | > 100 |
| COc1ncc(NCc2ccsc2)cc1C(N)=O | > 100 |
| COCCNc1nc(NCCc2ccccc2)nc2nccnc12 | > 100 |
| CN(C)S(=O)(=O)N1CCC(c2n[nH]cc2-c2ccnc(N)c2)C1 (centres undefined) | > 100 |
| CCCn1[nH]cc/c1=N\C(=O)CN1CCc2c(nc(C3CC3)n2C)C1 | > 100 |
| COc1c(C2CCCN2Cc2noc(C)n2)c(C)nn1C (centres undefined) | > 100 |
